Laboratory results taken from US20220347190A1, “TREATMENT COMPRISING FXR AGONISTS” (Novartis AG, priority 2019, published 2022).
“Also recorded” adds a separate entry of the source. Like-named read-outs stand apart in the source and are kept apart here. Values belong to the compound of their own block, whether it stands above or below them.

What was measured:
[1] = tested on: C57BL/6J mice on HF/NASH diet; test: Drug treatment study in mice on HF/NASH diet (Example 1); type: in vivo
Experimental: Studies were performed in compliance with Swiss guidelines for animal experimentation. Adult male C57BLJ6J mice were housed with ad libitum access to water and food. Mice were fed a HF/NASH diet (40 kcal % fat, 2% cholesterol, 40 kcal % carbohydrate, Research Diets, D09100301 or SSniff Special Diets, supplemented with a fructose-sucrose solution (42 g/L, 55% fructose and 45% sucrose by weight) in drinking water).
Total body fat and lean mass were analyzed by a nuclear magnetic resonance (NMR) and liver fat was measured by magnetic resonance imaging (MRI). […] Dietary intervention studies: mice fed a HF/NASH diet for 8 weeks were switched to normal diet (ND and water) for 12 weeks.
Drug treatment studies: mice exposed to HF/NASH diet for 20 weeks were treatment with LJP305 (1 mg/kg), GS-0976 (10 mg/kg) or vehicle (0.5% methylcellulose, 0.5% Tween 80 in water) p.o. once daily for 12 weeks while remaining on HF/NASH diet. At the end of the studies, blood and tissue samples were collected for analyses.
Liver samples were analyzed for collagen (Quickzyme), lipids and triglycerides (Cayman). Relative gene expression was calculated by normalizing Ct values of genes of interest against 18s (liver) or Idh3b (fat, ileum). Serum TIMP-1 (R&D Systems Inc.), PIII-NP (N-terminal procollagen III propeptide) (Cusabio Biotech Co.), α-fetoprotein (R&D Systems Inc.), leptin, and adiponectin (Meso Scale Discovery) were measured.
Paraffin-embedded tissue was stained with hematoxylin/eosin (H&E) and picrosirius red. IBA1 (ionized calcium-binding adapter molecule 1)-positive crown-like structures (Abcam, ab178846), Ly6b (BioRad, MCA771), UCP-1 (Abcam, ab109839) or ZO-1 (Invitrogen, 14-9776-80) were stained (Ventana Discovery XT) followed by digital (Aperio ScanScope XT, Leica Biosystems) and automated image analysis (HALO, Indica Labs).

NASH patients [2] = conditions: cited from earlier work
healthy volunteers = conditions: cited from earlier work
[3] = tested on: patients with biopsy-proven NASH and fibrosis stages 2-3
Description: Prespecified endpoints assessed at week 12 included overall safety and changes in alanine aminotransferase (ALT), hepatic fat fraction (HFF), gamma glutamyl transferase (GGT), and body weight.

NASH patients [4] = tested on: NASH patients
NASH patients [5] = conditions: cited from earlier work; remark: listed apart in the source
[6] = GS-0976 10 mg/kg p.o. once daily for 12 weeks, HF/NASH diet

- elevation of circulating leptin levels vs vehicle [1, 6]: 2 fold
- increase in total fat mass vs vehicle [1, 6]: 27%
- increase in visceral and subcutaneous fat vs vehicle [1, 6]: 30%
Compound: COc1ccccc1[C@H](Cn1c(=O)n(C(C)(C)C(=O)O)c(=O)c2c(C)c(-c3ncco3)sc21)OC1CCOCC1 [GS-0976, 2-[1-{(2R)-2-(2-methoxyphenyl)-2-[(oxan-4-yl)oxy]ethyl}-5-methyl-6-(1,3-oxazol-2-yl)-2,4-dioxo-1,4-dihydrothieno[2,3-d]pyrimidin-3(2H)-yl]-2-methylpropanoic acid]
- mean body weight above vehicle-treated mice ([1]; GS-0976 10 mg/kg p.o. once daily, end of 12-week treatment, HF/NASH diet): 7%
- liver gene expression (lipid metabolism genes) ([1]; GS-0976 10 mg/kg, liver transcriptome): induced multiple genes known to play roles in lipid metabolism
- effect on blood triglycerides and peripheral obesity ([1]; NASH mice, 12-week treatment): elevated blood triglycerides and peripheral obesity
- body weight effect (in words) ([1]; chronic treatment, HF/NASH diet, vs vehicle): significant increase in body weight
- effect of therapeutic treatment on established NASH with fibrosis ([1]; p.o. once daily for 12 weeks after 20 weeks of HF/NASH diet): resolved established NASH with fibrosis
- plasma triglycerides (TG) (NASH patients [2]; NASH patients): Hypertriglyceridemia; also recorded: elevated plasma triglycerides
- steatosis and MRI-PDFF in NASH subjects (NASH patients [2]; NASH subjects): improve steatosis and improvements in MRI-PDFF
- liver fat, serum TIMP-1 and liver injury (NASH patients [2]; clinical phase 2 NASH studies, 12 weeks): reductions in liver fat, serum TIMP-1, and liver injury

Compound: COc1cc(C(=O)N2CCC3(CC2)CC(=O)c2cc(-c4cncc(C(=O)O)c4)ccc2O3)cc2c1c(C)cn2C1CC1 [MK-4704]
- plasma triglycerides (healthy volunteers): Hypertriglyceridemia

Compound: O=C(O)c1cc(F)c2nc(N3C4CCC3CC(OCc3c(-c5ccccc5OC(F)(F)F)noc3C3CC3)C4)sc2c1 [Tropifexor, 2-[(1R,3r,5S)-3-({5-cyclopropyl-3-[2-(trifluoromethoxy)phenyl]-1,2-oxazol-4-yl}methoxy)-8-azabicyclo[3.2.1]octan-8-yl]-4-fluoro-1,3-benzothiazole-6-carboxylic acid]
- frequency of serious adverse events ([3]; 140 μg and 200 μg vs placebo): low and comparable across groups
- low density lipoprotein-cholesterol (LDL-C) ([3]; 140 μg and 200 μg, 12 weeks): dose-related increase
- treatment discontinuation rate due to pruritus ([3]; Tropifexor 140 μg): 2%
- ALT, LS mean absolute change (SE) from baseline to Week 12 ([3]; Tropifexor 140 μg once daily): −20.1 (4.57) U/L
- Body weight, LS mean absolute change (SE) from baseline to Week 12 ([3]; Tropifexor 140 μg once daily): −2.46 (0.38) kg
- GGT, LS mean absolute change (SE) from baseline to Week 12 ([3]; Tropifexor 140 μg once daily): −39.2 (3.70) U/L
- pre-specified endpoints at week 12 ([3]; Tropifexor 200 μg): Pre-specified endpoints were met
- treatment discontinuation rate due to pruritus ([3]; Tropifexor 200 μg): 6%
- ALT, LS mean absolute change (SE) from baseline to Week 12 ([3]; Tropifexor 200 μg once daily): −23.6 (4.48) U/L
- Body weight, LS mean absolute change (SE) from baseline to Week 12 ([3]; Tropifexor 200 μg once daily): −3.20 (0.37) kg
- GGT, LS mean absolute change (SE) from baseline to Week 12 ([3]; Tropifexor 200 μg once daily): −40.9 (3.62) U/L
- share of patients with pruritus whose events were of mild (Grade 1) severity ([3]; both Tropifexor groups (140 μg and 200 μg)): > 60%
- ALT, HFF and body weight after 12 weeks (in words) ([3]; higher doses (140 μg and 200 μg)): robust and dose-dependent decreases
- efficacy based on biomarkers at Week 12 (NASH patients [4]; 60 and 90 μg): anti-inflammatory and anti-steatotic efficacy
- tolerability (NASH patients [4]; up to 90 μg daily): generally well tolerated up to 90 μg daily without safety signals

Compound: CC[C@H]1[C@@H](O)[C@@H]2[C@H](CC[C@]3(C)[C@@H]([C@H](C)CCC(=O)O)CC[C@@H]23)[C@@]2(C)CC[C@@H](O)C[C@@H]12 [obeticholic acid, 6α-ethyl-chenodeoxycholic acid]
- adverse effects of long term administration (NASH patients [5]): associated with pruritus and lipid abnormalities
